Experimental data from ChEMBL document CHEMBL1201862, “PubChem BioAssay data set” (2004).
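Values below derive from 48-hour exposures of cells grown in 96-well plates, with endpoints linearly interpolated between the two concentrations bracketing the appropriate inhibition level. At the GI50, growth is halved.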 Activity calls are given as the source filed them. Rule as the data show it: active = GI50 up to about 1.1 µM and inactive = higher.

Legend:
Experiment in all cases: inhibition of tumour cell growth, NCI panel, 48 h
A549 = tested on: A549
BT-549 = tested on: BT-549
CAKI-1 = tested on: CAKI-1
COLO 205 = tested on: COLO 205
EKVX = tested on: EKVX
LOX IMVI = tested on: LOX IMVI
MDA-N = tested on: MDA-N
MOLT-4 = tested on: MOLT-4
NCI-H522 = tested on: NCI-H522
NCI/ADR-RES = tested on: NCI/ADR-RES
OVCAR-5 = tested on: OVCAR-5
PC-3 = tested on: PC-3
RPMI-8226 = tested on: RPMI-8226
SK-MEL-5 = tested on: SK-MEL-5
SR = tested on: SR
SW-620 = tested on: SW-620
T47D = tested on: T47D
UACC-257 = tested on: UACC-257
HL-60 = tested on: HL-60
NCI-H23 = tested on: NCI-H23

For `O=C1c2sc(-c3ccc(Cl)cc3)cc2-n2cccc21`, the GI50 (A549) was > 100 µM (inactive), the GI50 (BT-549) was > 100 µM (inactive) and the GI50 (CAKI-1) was > 100 µM (inactive). The GI50 (COLO 205) was > 100 µM (inactive), the GI50 (EKVX) was > 100 µM (inactive) and the GI50 (LOX IMVI) was > 100 µM (inactive). For the same compound, the GI50 (MDA-N) was > 100 µM (inactive), the GI50 (MOLT-4) was > 100 µM (inactive) and the GI50 (NCI-H522) was > 100 µM (inactive). For the same compound, the GI50 (NCI/ADR-RES) was > 100 µM (inactive), the GI50 (OVCAR-5) was > 100 µM (inactive) and the GI50 (PC-3) was > 100 µM (inactive). For the same compound, the GI50 (RPMI-8226) was > 100 µM (inactive), the GI50 (SK-MEL-5) was > 100 µM (inactive) and the GI50 (SR) was > 100 µM (inactive). The GI50 (SW-620) was > 100 µM (inactive), the GI50 (T47D) was > 100 µM (inactive) and the GI50 (UACC-257) was > 100 µM (inactive).
In the case of `Cc1cc(O)nc2c3c(ccc12)OC(C)(C)C=C3`, the GI50 (A549) is reported as 7.33 µM (inactive), the GI50 (BT-549) is reported as 36.6 µM (inactive) and the GI50 (CAKI-1) is reported as 5.93 µM (inactive). The GI50 (COLO 205) was 2.89 µM (inactive), the GI50 (EKVX) was 14.9 µM (inactive) and the GI50 (HL-60) was 0.43 µM (active). The GI50 (MDA-N) was 2.08 µM (inactive), the GI50 (MOLT-4) was 5.16 µM (inactive) and the GI50 (NCI-H23) was 5.46 µM (inactive). The GI50 (NCI-H522) was 6.67 µM (inactive), the GI50 (NCI/ADR-RES) was 3.99 µM (inactive) and the GI50 (OVCAR-5) was 9.62 µM (inactive). The GI50 (PC-3) was 5.9 µM (inactive), the GI50 (RPMI-8226) was 4.47 µM (inactive) and the GI50 (SK-MEL-5) was 3.82 µM (inactive). For the same compound, the GI50 (SR) was 2.44 µM (inactive), the GI50 (SW-620) was 3.61 µM (inactive) and the GI50 (T47D) was > 23.3 µM (inactive). The GI50 (UACC-257) was > 25.3 µM (inactive).
In the case of `CCCCC/C=C\C=C1\C(=O)C=C[C@@H]1C/C=C\CCCC(=O)O`, the GI50 (A549) is reported as 5.73 µM (inactive), the GI50 (BT-549) is reported as 2.05 µM (inactive) and the GI50 (CAKI-1) is reported as 3.37 µM (inactive). For the same compound, the GI50 (COLO 205) was 2.96 µM (inactive), the GI50 (EKVX) was 1.9 µM (inactive) and the GI50 (HL-60) was 2.41 µM (inactive). For the same compound, the GI50 (LOX IMVI) was 2.27 µM (inactive), the GI50 (MDA-N) was 1.96 µM (inactive) and the GI50 (MOLT-4) was 2.25 µM (inactive). For the same compound, the GI50 (NCI-H23) was 7.16 µM (inactive), the GI50 (NCI/ADR-RES) was 1.24 µM (inactive) and the GI50 (OVCAR-5) was 3.41 µM (inactive). The GI50 (PC-3) was 1.84 µM (inactive), the GI50 (RPMI-8226) was 1.38 µM (inactive) and the GI50 (SK-MEL-5) was 3.78 µM (inactive). The GI50 (SR) was 1.96 µM (inactive), the GI50 (SW-620) was 2.8 µM (inactive) and the GI50 (T47D) was 9.35 µM (inactive). The GI50 (UACC-257) was 7.29 µM (inactive).
In the case of `COc1ccc(C2C(C#N)=C(S)N(C3OC(CO)C(O)C(O)C3O)C(C)=C2C(C)=O)cc1` (stereo not given), the GI50 (A549) is reported as > 100 µM (inactive), the GI50 (BT-549) is reported as 92 µM (inactive) and the GI50 (COLO 205) is reported as > 100 µM (inactive). For the same compound, the GI50 (HL-60) was 58.7 µM (inactive), the GI50 (LOX IMVI) was > 100 µM (inactive) and the GI50 (MDA-N) was 72.3 µM (inactive). The GI50 (MOLT-4) was 40.8 µM (inactive), the GI50 (NCI-H23) was > 100 µM (inactive) and the GI50 (NCI-H522) was 60.4 µM (inactive). The GI50 (NCI/ADR-RES) was > 100 µM (inactive), the GI50 (OVCAR-5) was > 100 µM (inactive) and the GI50 (PC-3) was 73.1 µM (inactive). The GI50 (RPMI-8226) was 62.1 µM (inactive), the GI50 (SK-MEL-5) was 42.2 µM (inactive) and the GI50 (SR) was 56.9 µM (inactive). The GI50 (SW-620) was > 100 µM (inactive), the GI50 (T47D) was 30.5 µM (inactive) and the GI50 (UACC-257) was > 100 µM (inactive).
For `Brc1ccc(-c2ccc(-c3ccc(-c4ccc(Br)s4)s3)s2)s1`, the GI50 (A549) was > 100 µM (inactive), the GI50 (BT-549) was > 100 µM (inactive) and the GI50 (CAKI-1) was > 100 µM (inactive). The GI50 (COLO 205) was > 100 µM (inactive), the GI50 (EKVX) was > 100 µM (inactive) and the GI50 (HL-60) was > 100 µM (inactive). The GI50 (LOX IMVI) was > 100 µM (inactive), the GI50 (MDA-N) was > 100 µM (inactive) and the GI50 (MOLT-4) was > 100 µM (inactive). For the same compound, the GI50 (NCI-H23) was > 100 µM (inactive), the GI50 (NCI/ADR-RES) was > 100 µM (inactive) and the GI50 (OVCAR-5) was > 100 µM (inactive). The GI50 (PC-3) was > 100 µM (inactive), the GI50 (RPMI-8226) was > 100 µM (inactive) and the GI50 (SK-MEL-5) was > 100 µM (inactive). The GI50 (SR) was > 100 µM (inactive), the GI50 (SW-620) was > 100 µM (inactive) and the GI50 (T47D) was > 100 µM (inactive). For the same compound, the GI50 (UACC-257) was > 100 µM (inactive).
For `CN(C)CCNC(=O)Cn1cc([N+](=O)[O-])c(=O)c2ccccc21`, the GI50 (A549) was > 100 µM (inactive), the GI50 (BT-549) was > 100 µM (inactive) and the GI50 (CAKI-1) was > 100 µM (inactive). For the same compound, the GI50 (COLO 205) was > 100 µM (inactive), the GI50 (HL-60) was > 100 µM (inactive) and the GI50 (MDA-N) was > 100 µM (inactive). For the same compound, the GI50 (MOLT-4) was > 100 µM (inactive), the GI50 (NCI-H23) was > 100 µM (inactive) and the GI50 (NCI-H522) was > 100 µM (inactive). For the same compound, the GI50 (NCI/ADR-RES) was > 100 µM (inactive), the GI50 (OVCAR-5) was > 100 µM (inactive) and the GI50 (PC-3) was > 100 µM (inactive). The GI50 (SK-MEL-5) was > 100 µM (inactive), the GI50 (SR) was > 100 µM (inactive) and the GI50 (SW-620) was > 100 µM (inactive). For the same compound, the GI50 (T47D) was > 100 µM (inactive) and the GI50 (UACC-257) was > 100 µM (inactive).
